Results as given in article PMC8876135, “The Catestatin-Derived Peptides Are New Actors to Fight the Development of Oral Candidosis” (International Journal of Molecular Sciences, 2022).
In brackets after ≈: the same amount, converted by molar mass. Residues, ends and D or L forms follow the SMILES beside them.

Legend:
C. albicans = conditions: 24 h, 4 µM
Description: Each Candida strain was first plated on agar plates and cultured for 24 h at 37 °C. After incubation, one colony per isolate was transferred into 5 mL of Sabouraud medium pH 5.6 (Sigma-Aldrich, Le Pont-de-Claix, France) supplemented with tetracycline (10 μg/mL) and cefotaxime (10 μg/mL) and incubated aerobically under agitation at 37 °C for 24 h. The resulting cultures were resuspended at an absorbance of 0.001 (OD600nm = 0.001) in Sabouraud medium. The OD600nm was evaluated with a spectrophotometer (BIO-RAD Smatspec^TM plus, Schiltigheim, France). In preliminary experiments, we tested RPMI-1640 culture and Sabouraud media. […] Therefore, Sabouraud medium was used in the present study.
(§1) The yeasts (OD600nm = 0.001) were then plated on 96-well microplates and treated with different concentrations of the peptides of interest. After 24 h incubation at 37 °C under agitation, yeast growth was assessed by optical density (OD600nm) using a microplate spectrophotometer (Multiscan EX, Thermo Fisher Scientific, Waltham, MA, USA). All tests were performed in triplicate.
The same method was used to evaluate the MICs of peptide/bovine serum albumin combinations (BSA).

Candida tropicalis “S” = type: cell-based; conditions: 24 h, pH 5.6
Description: (§2) Strains of Candida albicans, Candida tropicalis and Candida glabrata, frequently found in cases of oral candidosis, were tested for L-bCtl and D-bCtl antimicrobial activity. The sensitive strain of C. albicans (ATCC 10231^TM) was provided by ATCC (Manassas, VA, USA). The resistant strain of C. albicans, the sensitive and resistant strains of C. tropicalis as well as the sensitive and resistant strains of C. glabrata were kindly provided by Dr Valérie Letscher-Bru (Laboratory of Parasitolology and Medical Mycology, Strasbourg, France).
(§3) Each Candida strain was first plated on agar plates and cultured for 24 h at 37 °C. After incubation, one colony per isolate was transferred into 5 mL of Sabouraud medium pH 5.6 (Sigma-Aldrich, Le Pont-de-Claix, France) supplemented with tetracycline (10 μg/mL) and cefotaxime (10 μg/mL) and incubated aerobically under agitation at 37 °C for 24 h. The resulting cultures were resuspended at an absorbance of 0.001 (OD600nm = 0.001) in Sabouraud medium. The OD600nm was evaluated with a spectrophotometer (BIO-RAD Smatspec^TM plus, Schiltigheim, France). In preliminary experiments, we tested RPMI-1640 culture and Sabouraud media. Similar data were obtained but the experiments were more reproducible with Sabouraud than with RPMI1640. Therefore, Sabouraud medium was used in the present study.
as §1, with “triplicate. The MIC (minimal inhibitory concentration), defined as the lowest concentration of drug able to inhibit 100% of the growth of a pathogen, was determined for the different peptides against all previously described Candida strains, using a modified Gompertz model.” for “triplicate.”

Candida albicans “R” = type: cell-based; conditions: 24 h, pH 5.6
Description: as §2, §3
as §1, with “triplicate. The MIC (minimal inhibitory concentration), defined as the lowest concentration of drug able to inhibit 100% of the growth of a pathogen, was determined for the different peptides against all previously described Candida strains, using a modified Gompertz model.” for “triplicate.”

[1] = system: Candida albicans “S” (ATCC 10231); type: cell-based; conditions: ATCC 10231, 24 h, pH 5.6
Description: as §2, §3
as §1, with “triplicate. The MIC (minimal inhibitory concentration), defined as the lowest concentration of drug able to inhibit 100% of the growth of a pathogen, was determined for the different peptides against all previously described Candida strains, using a modified Gompertz model.” for “triplicate.”

Candida glabrata “S” = type: cell-based; conditions: 24 h, pH 5.6
Description: as §2, §3
as §1, with “triplicate. The MIC (minimal inhibitory concentration), defined as the lowest concentration of drug able to inhibit 100% of the growth of a pathogen, was determined for the different peptides against all previously described Candida strains, using a modified Gompertz model.” for “triplicate.”

Candida glabrata “R” = type: cell-based; conditions: 24 h, pH 5.6
Description: as §2, §3
as §1, with “triplicate. The MIC (minimal inhibitory concentration), defined as the lowest concentration of drug able to inhibit 100% of the growth of a pathogen, was determined for the different peptides against all previously described Candida strains, using a modified Gompertz model.” for “triplicate.”

Candida tropicalis “R” = type: cell-based; conditions: 24 h, pH 5.6
Description: as §2, §3
as §1, with “triplicate. The MIC (minimal inhibitory concentration), defined as the lowest concentration of drug able to inhibit 100% of the growth of a pathogen, was determined for the different peptides against all previously described Candida strains, using a modified Gompertz model.” for “triplicate.”

[2] = cited from earlier work
Source text: Host-defense peptides (HDPs) have emerged as new attractive candidates in the development of new antimicrobial agents. In addition, HDPs have been proven to be potent immune effectors via the orchestration of immune responses.

SMILES | inhibition (C. albicans) | MIC Candida tropicalis “S” (Candida tropicalis “S”) | MIC C. albicans “R” (Candida albicans “R”) | MIC C. albicans “S” [1] | MIC Candida glabrata “S” (Candida glabrata “S”) | MIC Candida glabrata “R” (Candida glabrata “R”) | MIC Candida tropicalis “R” (Candida tropicalis “R”) | stability to bacterial degradation [2]
CSCC[C@H](NC(=O)[C@H](CO)NC(=O)[C@@H](N)CCCNC(=N)N)C(=O)N[C@@H](CCCNC(=N)N)C(=O)N[C@@H](CC(C)C)C(=O)N[C@@H](CO)C(=O)N[C@@H](Cc1ccccc1)C(=O)N[C@@H](CCCNC(=N)N)C(=O)N[C@@H](C)C(=O)N[C@@H](CCCNC(=N)N)C(=O)NCC(=O)N[C@@H](Cc1ccc(O)cc1)C(=O)NCC(=O)N[C@@H](Cc1ccccc1)C(=O)N[C@@H](CCCNC(=N)N)C(=O)NCC(=O)N1CCC[C@H]1C(=O)NCC(=O)N[C@@H](CC(C)C)C(=O)N[C@@H](CCC(N)=O)C(=O)N[C@@H](CC(C)C)C(=O)O [bCts] (H-RSMRLSFRARGYGFRGPGLQL-OH) | more than 90% | 50 µg/mL (≈ 20.6 µM) | 50 µg/mL (≈ 20.6 µM) | 30 µg/mL (≈ 12.4 µM) | >100 µg/mL | >100 µg/mL | 20 µg/mL (≈ 8.24 µM) | –
CSCC[C@H](NC(=O)[C@H](CO)NC(=O)[C@@H](N)CCCNC(=N)N)C(=O)N[C@@H](CCCNC(=N)N)C(=O)N[C@@H](CC(C)C)C(=O)N[C@@H](CO)C(=O)N[C@@H](Cc1ccccc1)C(=O)N[C@@H](CCCNC(=N)N)C(=O)N[C@@H](C)C(=O)N[C@@H](CCCNC(=N)N)C(=O)NCC(=O)N[C@@H](Cc1ccc(O)cc1)C(=O)NCC(=O)N[C@@H](Cc1ccccc1)C(=O)N[C@@H](CCCNC(=N)N)C(=O)O [bCtl] (H-RSMRLSFRARGYGFR-OH) | – | 9.8 µg/mL (≈ 5.27 µM) | 9.6 µg/mL (≈ 5.16 µM) | – | 38.2 µg/mL (≈ 20.5 µM) | 61.4 µg/mL (≈ 33 µM) | 2.0 µg/mL (≈ 1.08 µM) | resists bacterial degradation
